Read-outs that look alike come from different tables or passages of the source.
Test: Timed organ biodistribution of [^64Cu]Cu-DOTATATE by ex vivo gamma counting
Assay type: in vivo, mice
Settings: mouse, intravenous, 1.85 MBq, total radioactivity, median (IQR); for tissue uptake at 1 min: 1 min after injection; for tissue uptake at 5 min: 5 min after injection; for tissue uptake at 0.25 h: 15 min after injection; for tissue uptake at 0.5 h: 30 min after injection; for tissue uptake at 2 h: 120 min after injection; for tissue uptake at 1 h: 60 min after injection
Protocol: Wild-type and atherosclerotic animals were injected with approximately 1.85 MBq of [^64Cu]Cu-DOTATATE and euthanized at either 1, 5, 15, 30, 60 or 120 min after injection (Supplementary Fig. S1A) to evaluate the tracer’s biodistribution. After euthanasia, an insulin syringe was used to collect blood samples from the right ventricle. Blood samples were used for the establishment of pharmacokinetics profile. Mice were then perfused with 20 mL of phosphate-buffered saline (PBS) and tissues of interest (heart, aorta, bone marrow, spleen, liver, stomach, bladder, kidneys, intestines, lungs, adrenal gland, muscles and pancreas) were harvested. Tissues were blotted for gamma counting on a Wizard2 2480 automatic gamma counter (Perkin Elmer, Waltham, MA). Values were corrected for decay and normalized to tissue weight to express radioactivity concentration as percentage injected dose per gram (%ID/g). […] To investigate the tracer’s distribution within different blood compartments, after gamma counting, 100 μL of blood were spun down at 2000 g for 15 min at 4 °C. Plasma (supernatant) and cells (pellet) were gamma counted and expressed as percentage of total activity. The remainder of the blood was separated using Lymphoprep density gradient medium (Nycomed Pharma, Zurich, Switzerland) following manufacturer’s instructions. Percentage of activity in mononuclear and polynuclear cells was calculated.

[1] = abdominal aorta, female Apoe^-/- mice 12 weeks on Western Diet, N=3-8, read-out: Tissue radioactivity, abdominal aorta
[2] = abdominal aorta, female C57BL/6 mice, N=3-7, read-out: Tissue radioactivity, abdominal aorta
[3] = adrenal gland, female Apoe^-/- mice 12 weeks on Western Diet, N=3-8, read-out: Tissue radioactivity, adrenal gland
[4] = adrenal gland, female C57BL/6 mice, N=3-7, read-out: Tissue radioactivity, adrenal gland
[5] = aortic arch, female Apoe^-/- mice 12 weeks on Western Diet, N=3-8, read-out: Tissue radioactivity, aortic arch
[6] = aortic arch, female C57BL/6 mice, N=3-7, read-out: Tissue radioactivity, aortic arch
[7] = bladder, female Apoe^-/- mice 12 weeks on Western Diet, N=3-8, read-out: Tissue radioactivity, bladder
[8] = bladder, female C57BL/6 mice, N=3-7, read-out: Tissue radioactivity, bladder
[9] = bone marrow, female Apoe^-/- mice 12 weeks on Western Diet, N=3-8, read-out: Tissue radioactivity, bone marrow
[10] = bone marrow, female C57BL/6 mice, N=3-7, read-out: Tissue radioactivity, bone marrow
[11] = fat, female Apoe^-/- mice 12 weeks on Western Diet, N=3-8, read-out: Tissue radioactivity, fat
[12] = fat, female C57BL/6 mice, N=3-7, read-out: Tissue radioactivity, fat
[13] = heart, female Apoe^-/- mice 12 weeks on Western Diet, N=3-8, read-out: Tissue radioactivity, heart
[14] = heart, female C57BL/6 mice, N=3-7, read-out: Tissue radioactivity, heart
[15] = kidneys, female Apoe^-/- mice 12 weeks on Western Diet, N=3-8, read-out: Tissue radioactivity, kidneys
[16] = kidneys, female C57BL/6 mice, N=3-7, read-out: Tissue radioactivity, kidneys
[17] = large intestine, female Apoe^-/- mice 12 weeks on Western Diet, N=3-8, read-out: Tissue radioactivity, large intestine
[18] = large intestine, female C57BL/6 mice, N=3-7, read-out: Tissue radioactivity, large intestine
[19] = liver, female Apoe^-/- mice 12 weeks on Western Diet, N=3-8, read-out: Tissue radioactivity, liver

For `C[C@@H](O)[C@H](NC(=O)[C@@H]1CSSC[C@H](NC(=O)[C@@H](Cc2ccccc2)NC(=O)CN2CCN(CC(=O)O)CCN(CC(=O)O)CCN(CC(=O)O)CC2)C(=O)N[C@@H](Cc2ccc(O)cc2)C(=O)N[C@H](Cc2c[nH]c3ccccc23)C(=O)N[C@@H](CCCCN)C(=O)N[C@@H]([C@@H](C)O)C(=O)N1)C(=O)O` [[^64Cu]Cu-DOTATATE, metal not drawn], the tissue uptake at 1 min [1] was 3.1 %ID/g, the tissue uptake at 5 min [1] was 3.2 %ID/g and the tissue uptake at 0.25 h [1] was 2.1 %ID/g. It also gave a tissue uptake at 0.5 h [1] of 2.5 %ID/g, a tissue uptake at 2 h [1] of 2.1 %ID/g and a tissue uptake at 1 min [2] of 5.1 %ID/g. For the same compound, the tissue uptake at 5 min [2] was 3.8 %ID/g, the tissue uptake at 0.25 h [2] was 2.4 %ID/g and the tissue uptake at 0.5 h [2] was 1.7 %ID/g. For the same compound, the tissue uptake at 1 h [2] was 1.3 %ID/g, the tissue uptake at 2 h [2] was 0.7 %ID/g and the tissue uptake at 1 min [3] was 1.4 %ID/g. The tissue uptake at 5 min [3] was 1.2 %ID/g, the tissue uptake at 0.25 h [3] was 1.4 %ID/g and the tissue uptake at 0.5 h [3] was 1.5 %ID/g. The tissue uptake at 1 h [3] was 1.4 %ID/g, the tissue uptake at 2 h [3] was 1.1 %ID/g and the tissue uptake at 0.25 h [4] was 1.7 %ID/g. For the same compound, the tissue uptake at 0.5 h [4] was 1.6 %ID/g, the tissue uptake at 1 h [4] was 1.6 %ID/g and the tissue uptake at 2 h [4] was 0.6 %ID/g. The tissue uptake at 1 min [5] was 2.9 %ID/g, the tissue uptake at 0.25 h [5] was 1.7 %ID/g and the tissue uptake at 0.5 h [5] was 1.7 %ID/g. The tissue uptake at 1 min [6] was 2.8 %ID/g, the tissue uptake at 0.25 h [6] was 1.3 %ID/g and the tissue uptake at 0.5 h [6] was 1.1 %ID/g. It also gave a tissue uptake at 1 h [6] of 1.1 %ID/g, a tissue uptake at 2 h [6] of 1.2 %ID/g and a tissue uptake at 1 min [7] of 1.7 %ID/g. For the same compound, the tissue uptake at 5 min [7] was 98.7 %ID/g, the tissue uptake at 0.25 h [7] was 38.9 %ID/g and the tissue uptake at 0.5 h [7] was 2.9 %ID/g. For the same compound, the tissue uptake at 1 h [7] was 4.7 %ID/g, the tissue uptake at 2 h [7] was 2.4 %ID/g and the tissue uptake at 1 min [8] was 4.6 %ID/g. For the same compound, the tissue uptake at 5 min [8] was 36.4 %ID/g, the tissue uptake at 0.25 h [8] was 7.9 %ID/g and the tissue uptake at 0.5 h [8] was 6.8 %ID/g. For the same compound, the tissue uptake at 2 h [8] was 10.4 %ID/g, the tissue uptake at 1 min [9] was 3.1 %ID/g and the tissue uptake at 5 min [9] was 2.3 %ID/g. For the same compound, the tissue uptake at 0.25 h [9] was 2.6 %ID/g, the tissue uptake at 2 h [9] was 2.7 %ID/g and the tissue uptake at 5 min [10] was 4.3 %ID/g. For the same compound, the tissue uptake at 0.25 h [10] was 3.5 %ID/g, the tissue uptake at 1 h [10] was 2.1 %ID/g and the tissue uptake at 2 h [10] was 2.5 %ID/g. It also gave a tissue uptake at 1 min [11] of 0.3 %ID/g, a tissue uptake at 5 min [11] of 0.4 %ID/g and a tissue uptake at 0.25 h [11] of 0.4 %ID/g. It also gave a tissue uptake at 0.5 h [11] of 0.3 %ID/g, a tissue uptake at 1 h [11] of 0.2 %ID/g and a tissue uptake at 2 h [11] of 0.2 %ID/g. For the same compound, the tissue uptake at 1 min [12] was 1.1 %ID/g, the tissue uptake at 5 min [12] was 1.3 %ID/g and the tissue uptake at 0.25 h [12] was 0.8 %ID/g. For the same compound, the tissue uptake at 0.5 h [12] was 0.5 %ID/g, the tissue uptake at 1 h [12] was 0.3 %ID/g and the tissue uptake at 2 h [12] was 0.2 %ID/g. The tissue uptake at 1 min [13] was 2.3 %ID/g, the tissue uptake at 5 min [13] was 1.4 %ID/g and the tissue uptake at 0.25 h [13] was 1.1 %ID/g. It also gave a tissue uptake at 1 h [13] of 1.3 %ID/g, a tissue uptake at 2 h [13] of 1.4 %ID/g and a tissue uptake at 1 min [14] of 3.8 %ID/g. It also gave a tissue uptake at 5 min [14] of 2.1 %ID/g, a tissue uptake at 0.25 h [14] of 1.1 %ID/g and a tissue uptake at 1 h [14] of 0.8 %ID/g. It also gave a tissue uptake at 2 h [14] of 0.7 %ID/g, a tissue uptake at 1 min [15] of 15.6 %ID/g and a tissue uptake at 5 min [15] of 22.9 %ID/g. The tissue uptake at 0.25 h [15] was 13.2 %ID/g, the tissue uptake at 0.5 h [15] was 8.8 %ID/g and the tissue uptake at 1 min [16] was 26.8 %ID/g. The tissue uptake at 5 min [16] was 20.5 %ID/g, the tissue uptake at 0.25 h [16] was 11.5 %ID/g and the tissue uptake at 0.5 h [16] was 8.2 %ID/g. It also gave a tissue uptake at 1 h [16] of 6.1 %ID/g, a tissue uptake at 1 min [17] of 1.3 %ID/g and a tissue uptake at 5 min [17] of 1.3 %ID/g. The tissue uptake at 0.5 h [17] was 2.8 %ID/g, the tissue uptake at 2 h [17] was 3.8 %ID/g and the tissue uptake at 1 min [18] was 2.7 %ID/g. For the same compound, the tissue uptake at 5 min [18] was 1.6 %ID/g, the tissue uptake at 0.5 h [18] was 1.7 %ID/g and the tissue uptake at 1 h [18] was 3 %ID/g. For the same compound, the tissue uptake at 2 h [18] was 3.1 %ID/g, the tissue uptake at 1 min [19] was 4.4 %ID/g and the tissue uptake at 5 min [19] was 4.9 %ID/g. It also gave a tissue uptake at 0.25 h [19] of 8.6 %ID/g.

Reference: PMC9007951, “Systematically evaluating DOTATATE and FDG as PET immuno-imaging tracers of cardiovascular inflammation” (Scientific Reports, 2022)
